The text below walks through data of ChEMBL document CHEMBL5154698, “Novel PHD2/HDACs hybrid inhibitors protect against cisplatin-induced acute kidney injury” (Eur J Med Chem, 2022).

What is called IC50 is the concentration at which inhibition is half-maximal. Low values mean greater potency, high ones weaker potency.

Each structure is given as a SMILES string. Calls of active or inactive are those of the source. No cut-off for these calls is given here.

In experiment [1] the test system is Mus musculus. Description: Nephroprotective activity against cisplatin-induced acute kidney injury in male C57BL/6 mouse assessed as plasma BUN concentration at 10 mg/kg/day, ip. The experiment is classed as functional.
Experiment [2] concerns the target T1, Protein deacetylase HDAC6 (Homo sapiens, UniProt Q9UBN7).
T1 sequence (Q9UBN7 whole entry): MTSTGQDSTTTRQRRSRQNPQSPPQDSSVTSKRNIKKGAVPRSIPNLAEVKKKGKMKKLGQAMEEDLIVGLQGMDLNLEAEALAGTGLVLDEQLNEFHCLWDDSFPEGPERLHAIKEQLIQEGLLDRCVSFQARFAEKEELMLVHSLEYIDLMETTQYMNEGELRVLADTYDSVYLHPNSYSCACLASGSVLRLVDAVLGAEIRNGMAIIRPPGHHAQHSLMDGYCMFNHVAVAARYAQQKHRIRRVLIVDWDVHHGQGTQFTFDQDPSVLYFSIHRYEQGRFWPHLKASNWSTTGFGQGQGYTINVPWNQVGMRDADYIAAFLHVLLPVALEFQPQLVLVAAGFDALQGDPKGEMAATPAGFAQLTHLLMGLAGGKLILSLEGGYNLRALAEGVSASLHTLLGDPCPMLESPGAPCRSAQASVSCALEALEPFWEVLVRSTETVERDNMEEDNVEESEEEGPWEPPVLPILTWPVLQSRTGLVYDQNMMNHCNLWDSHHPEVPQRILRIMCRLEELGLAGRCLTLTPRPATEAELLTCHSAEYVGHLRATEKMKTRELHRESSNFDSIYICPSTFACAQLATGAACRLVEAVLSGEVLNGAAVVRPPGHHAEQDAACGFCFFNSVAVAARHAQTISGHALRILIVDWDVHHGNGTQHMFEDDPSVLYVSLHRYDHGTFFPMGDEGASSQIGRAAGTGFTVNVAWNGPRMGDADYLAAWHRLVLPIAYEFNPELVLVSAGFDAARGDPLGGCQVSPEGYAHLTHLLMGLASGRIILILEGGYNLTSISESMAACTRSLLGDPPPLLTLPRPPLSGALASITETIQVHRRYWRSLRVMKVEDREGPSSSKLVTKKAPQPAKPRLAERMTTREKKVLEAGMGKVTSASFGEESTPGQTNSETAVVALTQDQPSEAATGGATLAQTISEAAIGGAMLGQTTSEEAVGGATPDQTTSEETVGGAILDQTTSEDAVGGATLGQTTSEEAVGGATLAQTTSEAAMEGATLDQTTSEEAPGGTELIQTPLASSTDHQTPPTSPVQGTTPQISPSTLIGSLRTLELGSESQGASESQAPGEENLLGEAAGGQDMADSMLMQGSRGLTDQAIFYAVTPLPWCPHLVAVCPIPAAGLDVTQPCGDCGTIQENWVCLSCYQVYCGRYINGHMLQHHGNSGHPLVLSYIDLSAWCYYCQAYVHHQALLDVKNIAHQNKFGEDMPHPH
In words: Inhibition of HDAC6 (unknown origin) using trypsin and Ac-peptide as substrates.

Experiment [3] deals with Mus musculus. In words: Nephroprotective activity against cisplatin-induced acute kidney injury in male C57BL/6 mouse assessed as plasma SCr concentration at 10 mg/kg/day, ip. The experiment is classed as functional.
The subject of experiment [4] is HK-2. Description: Antiproliferative activity against human HK-2 cells assessed as decrease in cell viability at 50 uM measured in presence of 10 uM cisplatin after 24 hrs by CCK-8 assay. In kind it is functional. For orientation: Tetrazolium dyes change colour on reduction, which living cells bring about.
For experiment [5], the system named is Mus musculus. In words: Nephroprotective activity against cisplatin-induced acute kidney injury in male C57BL/6 mouse assessed as serum EPO level at 10 mg/kg/day, ip. The experiment is classed as functional.
The test system of experiment [6] is MCF7. In words: Induction of apoptosis in human MCF7 cells assessed as apoptotic cell population at 50 uM in presence of 100 uM cisplatin measured by Annexin V-FITC/propidium iodide staining based flow cytometry assay. The experiment is classed as functional. A general note: In flow cytometry, cells or beads pass a laser one at a time.
Experiment [7] deals with Mus musculus. In words: Nephroprotective activity against cisplatin-induced acute kidney injury in male C57BL/6 mouse assessed as decrease in expression of NGAL at 10 mg/kg/day, ip. The experiment is classed as functional, organism-based.
The target of another experiment is Histone deacetylase 2 (Homo sapiens, UniProt Q92769).
Experiment [8] has as its system MCF7. Description: Induction of apoptosis in human MCF7 cells assessed as apoptotic cell population at 50 uM measured by Annexin V-FITC/propidium iodide staining based flow cytometry assay. The experiment is classed as functional.
Experiment [9] concerns A549. In words: Induction of apoptosis in human A549 cells assessed as apoptotic cell population at 50 uM measured by Annexin V-FITC/propidium iodide staining based flow cytometry assay. In kind it is functional.
In experiment [10] the test system is Mus musculus. Description: Nephroprotective activity against cisplatin-induced acute kidney injury in male C57BL/6 mouse assessed as decrease tubular injury at 10 mg/kg/day, ip. The experiment is classed as functional, organism-based.
A further experiment deals with Histone deacetylase 4 (Homo sapiens, UniProt P56524). In words: Inhibition of HDAC4 (unknown origin) using trypsin and Ac-peptide as substrates.
The subject of experiment [11] is A549. Description: Antiproliferative activity against human A549 cells assessed as decrease in cell viability at 50 uM in presence of 40 uM cisplatin relative to control. The experiment is classed as functional.
The subject of experiment [12] is MCF7. In words: Antiproliferative activity against human MCF7 cells assessed as decrease in cell viability at 50 uM relative to control. In kind it is functional, cell-based.
The subject of experiment [13] is A549. Description: Antiproliferative activity against human A549 cells assessed as decrease in cell viability at 50 uM relative to control. The experiment is classed as functional, cell-based.
For another experiment, the target named is Histone deacetylase 1 (Homo sapiens, UniProt Q13547). Description: Inhibition of HDAC1 (unknown origin) using trypsin and Ac-peptide as substrates.
The next experiment deals with Egl nine homolog 1 (Homo sapiens, UniProt Q9GZT9). Description: Inhibition of PHD2 (unknown origin) measured by fluorescence polarization assay. On the technique in general: Fluorescence polarisation rises when a labelled molecule tumbles more slowly, as on binding a larger partner.
Experiment [14] relates to MCF7. In words: Antiproliferative activity against human MCF7 cells assessed as decrease in cell viability at 50 uM in presence of 100 uM cisplatin relative to control. The experiment is classed as functional.
The subject of experiment [15] is A549. Description: Induction of apoptosis in human A549 cells assessed as apoptotic cell population at 50 uM in presence of 100 uM cisplatin measured by Annexin V-FITC/propidium iodide staining based flow cytometry assay. In kind it is functional.
The subject of experiment [16] is HK-2. In words: Antiproliferative activity against human HK-2 cells assessed as decrease in cell viability at 0.78 uM measured after 24 hrs by CCK-8 assay. The experiment is classed as functional.

Sequence of Egl nine homolog 1 (Q9GZT9 whole entry): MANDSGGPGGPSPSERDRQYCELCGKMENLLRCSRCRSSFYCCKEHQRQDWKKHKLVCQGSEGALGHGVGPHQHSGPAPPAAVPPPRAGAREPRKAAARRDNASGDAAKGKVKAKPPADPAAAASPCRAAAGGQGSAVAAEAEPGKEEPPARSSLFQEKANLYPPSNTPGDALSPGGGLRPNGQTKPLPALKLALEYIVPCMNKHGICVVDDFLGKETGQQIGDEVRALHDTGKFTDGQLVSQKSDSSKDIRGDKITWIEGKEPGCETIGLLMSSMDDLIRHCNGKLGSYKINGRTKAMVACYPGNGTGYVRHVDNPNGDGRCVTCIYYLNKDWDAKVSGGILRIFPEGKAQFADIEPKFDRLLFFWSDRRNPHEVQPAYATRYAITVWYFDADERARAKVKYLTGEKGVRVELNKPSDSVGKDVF
Sequence of Histone deacetylase 1 (Q13547 whole entry): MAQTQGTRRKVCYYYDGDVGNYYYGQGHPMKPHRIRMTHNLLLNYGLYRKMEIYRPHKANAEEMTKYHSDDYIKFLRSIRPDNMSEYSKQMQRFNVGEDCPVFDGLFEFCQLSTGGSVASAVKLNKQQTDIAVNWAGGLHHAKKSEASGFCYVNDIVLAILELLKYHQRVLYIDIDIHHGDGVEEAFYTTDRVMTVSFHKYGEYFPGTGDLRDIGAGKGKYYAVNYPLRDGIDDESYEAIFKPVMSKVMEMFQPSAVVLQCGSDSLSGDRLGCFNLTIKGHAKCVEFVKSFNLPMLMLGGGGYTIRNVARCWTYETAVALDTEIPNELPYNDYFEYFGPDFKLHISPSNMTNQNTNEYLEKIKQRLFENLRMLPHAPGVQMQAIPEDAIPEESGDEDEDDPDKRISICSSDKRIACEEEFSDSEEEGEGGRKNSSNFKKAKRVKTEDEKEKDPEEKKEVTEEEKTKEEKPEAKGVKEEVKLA
Sequence of Histone deacetylase 4 (P56524 whole entry): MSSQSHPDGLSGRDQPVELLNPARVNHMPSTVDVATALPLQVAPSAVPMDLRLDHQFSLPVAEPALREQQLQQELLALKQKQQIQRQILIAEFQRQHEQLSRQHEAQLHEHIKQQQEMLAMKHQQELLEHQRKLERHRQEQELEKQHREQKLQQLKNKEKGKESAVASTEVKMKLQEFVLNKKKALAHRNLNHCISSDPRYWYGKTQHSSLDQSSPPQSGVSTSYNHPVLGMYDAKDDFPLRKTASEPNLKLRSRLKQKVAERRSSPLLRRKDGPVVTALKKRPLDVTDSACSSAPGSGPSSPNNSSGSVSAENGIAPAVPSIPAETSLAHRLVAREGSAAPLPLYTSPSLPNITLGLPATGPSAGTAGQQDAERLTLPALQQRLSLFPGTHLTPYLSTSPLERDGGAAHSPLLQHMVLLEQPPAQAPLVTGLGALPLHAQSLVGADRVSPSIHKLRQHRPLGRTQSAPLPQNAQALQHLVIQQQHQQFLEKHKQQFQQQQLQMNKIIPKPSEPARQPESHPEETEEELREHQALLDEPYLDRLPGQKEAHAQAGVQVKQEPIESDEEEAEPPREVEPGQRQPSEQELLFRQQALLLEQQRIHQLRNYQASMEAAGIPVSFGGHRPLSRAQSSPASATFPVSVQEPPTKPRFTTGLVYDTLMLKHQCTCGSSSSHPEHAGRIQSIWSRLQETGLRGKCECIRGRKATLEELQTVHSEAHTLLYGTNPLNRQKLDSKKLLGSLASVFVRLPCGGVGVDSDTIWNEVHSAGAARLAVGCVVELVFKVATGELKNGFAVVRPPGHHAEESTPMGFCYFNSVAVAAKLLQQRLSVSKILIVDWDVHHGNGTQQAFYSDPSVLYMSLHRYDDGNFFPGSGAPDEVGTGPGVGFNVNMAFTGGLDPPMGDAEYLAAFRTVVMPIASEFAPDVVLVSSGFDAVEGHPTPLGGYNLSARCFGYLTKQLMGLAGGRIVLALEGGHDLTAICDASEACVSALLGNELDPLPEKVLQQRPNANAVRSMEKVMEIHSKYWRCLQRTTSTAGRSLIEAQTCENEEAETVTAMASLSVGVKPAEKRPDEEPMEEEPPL
Sequence of Histone deacetylase 2 (Q92769 whole entry): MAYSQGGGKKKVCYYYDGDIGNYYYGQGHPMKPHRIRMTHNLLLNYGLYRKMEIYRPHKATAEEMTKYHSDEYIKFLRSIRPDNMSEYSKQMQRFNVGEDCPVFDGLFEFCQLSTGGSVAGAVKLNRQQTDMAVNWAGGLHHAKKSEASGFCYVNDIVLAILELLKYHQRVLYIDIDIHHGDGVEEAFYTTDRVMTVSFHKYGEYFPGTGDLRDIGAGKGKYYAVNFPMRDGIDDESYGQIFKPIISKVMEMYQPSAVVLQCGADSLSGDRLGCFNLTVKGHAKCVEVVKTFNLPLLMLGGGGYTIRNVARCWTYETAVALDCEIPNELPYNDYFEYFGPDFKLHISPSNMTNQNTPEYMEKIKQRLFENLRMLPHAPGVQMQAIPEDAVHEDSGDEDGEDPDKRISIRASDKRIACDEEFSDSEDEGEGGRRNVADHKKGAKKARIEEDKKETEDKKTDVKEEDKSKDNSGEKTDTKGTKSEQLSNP

As to `O=C(NO)c1cnc(N2CCC(NC(=O)c3cnc(-n4cccn4)nc3O)CC2)nc1`, the Activity in the experiment with Mus musculus [1] came out at 10.86 mmol/L; in the experiment on Mus musculus [3], 0.0311 mmol/L; with HK-2 [4], 61.96%; with Mus musculus [5] it was 15.34 mIU/ml; in the experiment on MCF7 [6], 26.6%; in the experiment on MCF7 [8], 19.3%. In addition, the Activity in the experiment with A549 [9] amounted to 4.9%; in the experiment with A549 [11] it was 39.09%; in the experiment with MCF7 [14], 36.83%; with A549 [15], 13.2%. In addition, the IC50 was found to be 16 nM in experiment [2]; 26.6 nM against Histone deacetylase 2; 1170 nM against Histone deacetylase 4; 19.8 nM against Histone deacetylase 1; 1150 nM on Egl nine homolog 1. For the same compound, the outcome in the experiment on Mus musculus [7], with Mus musculus [10], with MCF7 [12] and in the experiment with A549 [13] was Active.

With `Cc1nc(C(=O)NCC(=O)O)c(O)c2ccc(Oc3ccccc3)cc12` [ROXADUSTAT], the Activity with Mus musculus [1] was determined as 13.91 mmol/L; in the experiment with Mus musculus [3] it was 0.0947 mmol/L; in the experiment with HK-2 [4], 71.12%; in the experiment on Mus musculus [5], 23.46 mIU/ml.

As to `CC(/C=C/C(=O)NO)=C\[C@@H](C)C(=O)c1ccc(N(C)C)cc1` [TRICHOSTATIN], the figures for the Activity in the experiment on Mus musculus [1], with Mus musculus [3] and in the experiment on HK-2 [16] were 8.86 mmol/L, 0.129 mmol/L and 70%, respectively.
